According to US20080038838A1, “Dioxin-Binding Material and Method of Detecting or Quantifying Dioxin” (Towa Kagaku Co., Ltd., priority 2003, published 2008):
“And” between values parts separate entries of the source, which are not always exact repeats. Equal values may be shown once. “Also recorded” adds a separate entry of the source. Square brackets hold non-standard residues; d marks the D form. Ends that are not written are not given here. Cha = N[C@@H](CC1CCCCC1)C(=O)O; Phg = N[C@H](C(=O)O)c1ccccc1; Nva = CCC[C@H](N)C(=O)O

Assays:
[1] = method of competitive dioxin binding on bead (2,3,7,8-TeCDD); conditions: for capability of detecting 2,3,7,8-TeCDD compared with DB2: 30% 1,4-dioxane solvent
Description: (§1) 1 ml of a screening solvent containing 4 nM NBD-labeled dichlorophenol and 0-100 nM of a substance to be detected was prepared in a glass vial, and then three dioxin-binding peptide beads were put into the screening solvent. The resulting mixture was incubated, with mild shaking, overnight at room temperature, and then fluorescent microscope images thereof were recorded. The average fluorescence intensity of each bead was calculated from the recorded images. Calculation of the average fluorescence intensity was performed with an image analysis/measurement software, “Image-Pro Plus” (Planetron, Inc.). When competitive binding of the dichlorophenol with a dioxin occurs, the fluorescence intensity of each bead decreases depending on the concentration of the dioxin. Such a method of measuring the dioxin concentration utilizing the quenching phenomenon of the beads was termed “the method of competitive dioxin binding on bead”.
The DB2 peptide was evaluated for affinity to dioxins by the method of competitive dioxin binding on bead. FIGS. 6 (A) and 6 (B) show the results of tests conducted in a solvent containing 30% 1,4-dioxane. The relationship between dioxin concentration and average fluorescence intensity is plotted in FIG. 6 (A). As shown in the figure, declining sigmoid curves, which are characteristic of the competitive binding, were obtained. The curves were fitted using the four-parameter logistic equation, y=(a−d)/(1+(x/c)^b)+d, which is an empirical equation typically employed in competitive ELISA (Eiji Ishikawa, “Enzyme Immunoassay (3rd Edition)”, IGAKU-SHOIN).
(§2) The quenching ratio was calculated using the equation shown below. The beads were evaluated for affinity with the substances detected based on the values of quenching ratios.
(§3) quenching ratio=(fluorescence intensity 1−fluorescence intensity 2)/fluorescence intensity 1×100(%)
The binding constants of the DB2 peptide were calculated using the results of the above equation. Fitting was performed based on the theoretical equation for one-to-one binding of a receptor with a ligand as shown below:
(§4) Tests were conducted on the above-mentioned peptides by the method of competitive dioxin binding on bead described in Example 2, using a 30% 1,4-dioxane solvent. […] All the four kinds of single residue-substituted peptides were evaluated for dioxin binding capability by the method of competitive dioxin binding on bead.

[2] = method of competitive dioxin binding on bead (2,3,7-TriCDD)
Description: 1 ml of a screening solvent containing 4 nM NBD-labeled dichlorophenol and 0-100 nM of a substance to be detected was prepared in a glass vial, and then three dioxin-binding peptide beads were put into the screening solvent. The resulting mixture was incubated, with mild shaking, overnight at room temperature, and then fluorescent microscope images thereof were recorded. The average fluorescence intensity of each bead was calculated from the recorded images. Calculation of the average fluorescence intensity was performed with an image analysis/measurement software, “Image-Pro Plus” (Planetron, Inc.). When competitive binding of the dichlorophenol with a dioxin occurs, the fluorescence intensity of each bead decreases depending on the concentration of the dioxin. […]
The DB2 peptide was evaluated for affinity to dioxins by the method of competitive dioxin binding on bead. […] The relationship between dioxin concentration and average fluorescence intensity is plotted in FIG. 6 (A). […]
as §2, §3
The binding constants of the DB2 peptide were calculated using the results of the above equation. […]

[3] = secondary screening of peptide beads: fluorescence decrease by competition with 2,3,7-TriCDD; assay type: binding; conditions: 1 nM NBD-labeled dichlorophenol, 10 mM phosphate buffer pH 8 with 20% 1,4-dioxane
Source text: A peptide library was constructed by split-and-pool synthesis, one of the typical techniques of combinatorial chemistry, using beads for peptide solid-phase synthesis. According to the present method, a peptide of one kind of sequence is synthesized on a single bead. […] Primary screening involved screening of fluorescently stained peptide beads, using a composite (FIG. 3) obtained by labeling 3,4-dichlorophenol, which has an analogous structure to dioxins, with NBD as a fluorescent material.
About 2.5 million peptide beads were used for screening, the number being equal to the number of combinations of all the sequences of peptides comprising 5 amino acid residues. […] In order to measure the fluorescence intensity, fluorescent microscope images of the peptide beads were recorded with a digital camera (FIG. 4).
The aforementioned washable peptide beads were put into 1 ml of a screening solvent containing 1 nM NBD-labeled dichlorophenol and 10 or 100 nM 2,3,7-trichlorodibenzo-p-dioxin (2,3,7-TriCDD). The mixture was incubated overnight with mild shaking at room temperature, and was then transferred onto a glass petri dish, and fluorescent microscope images thereof were recorded. The obtained images were compared with the images recorded in the previous test so as to screen decreased beads. […]

[4] = fluorescent staining of peptide beads with NBD-labeled dichlorophenol; assay type: binding; conditions: 30% 1,4-dioxane solvent (FIG. 10)
Description: About 2.5 million peptide beads were used for screening, the number being equal to the number of combinations of all the sequences of peptides comprising 5 amino acid residues. The primary screening was conducted in a screening solvent (a 10 mM phosphate buffer containing 20% 1,4-dioxane (pH: 8)) containing 4 nM NBD-labeled dichlorophenol. 20 ml of the buffer solution was first mixed with about 50 mg of the peptide beads, and the mixture was subsequently incubated overnight, with mild shaking, in a petri dish at room temperature. A fraction of fluorescently stained peptide beads observed by a fluorescent microscope was collected with a micropipette. These peptide beads were transferred into a micro test tube containing 50 or 100% 1,4-dioxane, and were then incubated overnight at room temperature, i.e., washing with 50 or 100% dioxane overnight at room temperature. Peptide beads which were unable to be washed, on which the NBD-labeled dichlorophenol was unspecifically adsorbed, were excluded. Peptide beads that could be washed were re-stained with 1 nM NBD-labeled dichlorophenol. In order to measure the fluorescence intensity, fluorescent microscope images of the peptide beads were recorded with a digital camera (FIG. 4).
as §1
A library of twenty-one kinds of single amino acid-substituted peptides shown in FIG. 8 was constructed in order to evaluate the importance of each amino acid of the obtained oligopeptides, and to optimize the sequences. […]
as §4

[5] = 30% 1,4-dioxane, 4 nM NBD-labeled dichlorophenol, 0-100 nM substance
[6] = peptide beads, solvent containing 30% 1,4-dioxane, fit of quenching ratio to one-to-one binding equation

Row | Substance | 2,3,7,8-TeCDD concentration that can be detected ([1]; 30% 1,4-dioxane) | quenching by competition with 10 nM 2,3,7-TriCDD [3] | capability of detecting 2,3,7,8-TeCDD compared with DB2 [1] | fluorescence intensity when stained, compared with DB2 peptide [4] | further results
1 | Phe-Leu-Asp-Gln-Val (FLDQV) [DB2] | 1 nM and about 0.3 ng/ml | confirmed | – | – | concentration-dependent quenching by 2,3,7,8-TeCDD [1, 5]: Concentration-dependent quenching was observed; affinity (binding constant Ka) for 2,3,7,8-TeCDD [1, 6]: 1.7e+09 M⁻¹; concentration-dependent quenching by 2,3,7-TriCDD [2, 5]: Concentration-dependent quenching was observed; affinity (binding constant Ka) for 2,3,7-TriCDD [2, 6]: 2e+08 M⁻¹
2 | Phe Leu Asp Gln Nva (FLDQ[Nva]) [SEQ ID No. 24] | – | – | equal to or more than that of DB2 | equal to or greater than that of the DB2 peptide | –
3 | Phe Leu Asp Gln Leu (FLDQL) [SEQ ID No. 23] | – | – | equal to or more than that of DB2 | equal to or greater than that of the DB2 peptide | –
4 | Cha Leu Asp Gln Val ([Cha]LDQV) [SEQ ID No. 5] | – | – | equal to or more than that of DB2 | equal to or greater than that of the DB2 peptide | –
5 | Phe-Leu-Asp-Gln-Ile (FLDQI) [DB1] | – | confirmed | equal to or more than that of DB2 | – | –
6 | Phe Leu Asp Gln Phg (FLDQ[Phg]) [SEQ ID No. 22] | 0.15 nM and 0.05 ng/ml | – | equal to or more than that of DB2 | equal to or greater than that of the DB2 peptide | detection sensitivity to 2,3,7,8-TeCDD relative to DB2 ([1]; 30% dioxane solvent): about ten times greater than that of DB2; also recorded: about ten times higher than that of DB2
